Data reported in ChEMBL document CHEMBL6120974, “Hydrazide-Based Class I Selective HDAC Inhibitors Completely Reverse Chemoresistance Synergistically in Platinum-Resistant Solid Cancer Cells” (J Med Chem, 2024).
Calls of active or inactive are those of the source. The calls are words filed in the database; no cut-off is given here.

What was measured:
A2780 [1] = test: cells; conditions: Homo sapiens, A2780, 72 h
Description: Cytotoxicity against human A2780 cells assessed as reduction in cell viability incubated for 72 hrs by MTT assay

cells [2] = conditions: Homo sapiens, Cal27CisR
Description: Inhibition of class I/6 HDAC (unknown origin) in cisplatin resistant human Cal27CisR cells using Boc-Lys(epsilon-Ac)-AMC as substrate preincubated with compound for 18 hrs followed by substrate addition and measured after 3 hrs by NOVOstar microplate reader analysis

[3] = molecular target: T1, Protein deacetylase HDAC6 (Homo sapiens, UniProt Q9UBN7); test: (§1) Inhibition of N-terminal GST-tagged full length recombinant human HDAC6 (1 to 1215 end residues) expressed in sf9 cells using ZMAL (Z-Lys(Ac)-AMC as fluorogenic substrate preincubated with compound for 60 mins followed by substrate addition and measured after 90 mins by fluorescence based microplate reader analysis
T1 sequence (Q9UBN7 whole entry): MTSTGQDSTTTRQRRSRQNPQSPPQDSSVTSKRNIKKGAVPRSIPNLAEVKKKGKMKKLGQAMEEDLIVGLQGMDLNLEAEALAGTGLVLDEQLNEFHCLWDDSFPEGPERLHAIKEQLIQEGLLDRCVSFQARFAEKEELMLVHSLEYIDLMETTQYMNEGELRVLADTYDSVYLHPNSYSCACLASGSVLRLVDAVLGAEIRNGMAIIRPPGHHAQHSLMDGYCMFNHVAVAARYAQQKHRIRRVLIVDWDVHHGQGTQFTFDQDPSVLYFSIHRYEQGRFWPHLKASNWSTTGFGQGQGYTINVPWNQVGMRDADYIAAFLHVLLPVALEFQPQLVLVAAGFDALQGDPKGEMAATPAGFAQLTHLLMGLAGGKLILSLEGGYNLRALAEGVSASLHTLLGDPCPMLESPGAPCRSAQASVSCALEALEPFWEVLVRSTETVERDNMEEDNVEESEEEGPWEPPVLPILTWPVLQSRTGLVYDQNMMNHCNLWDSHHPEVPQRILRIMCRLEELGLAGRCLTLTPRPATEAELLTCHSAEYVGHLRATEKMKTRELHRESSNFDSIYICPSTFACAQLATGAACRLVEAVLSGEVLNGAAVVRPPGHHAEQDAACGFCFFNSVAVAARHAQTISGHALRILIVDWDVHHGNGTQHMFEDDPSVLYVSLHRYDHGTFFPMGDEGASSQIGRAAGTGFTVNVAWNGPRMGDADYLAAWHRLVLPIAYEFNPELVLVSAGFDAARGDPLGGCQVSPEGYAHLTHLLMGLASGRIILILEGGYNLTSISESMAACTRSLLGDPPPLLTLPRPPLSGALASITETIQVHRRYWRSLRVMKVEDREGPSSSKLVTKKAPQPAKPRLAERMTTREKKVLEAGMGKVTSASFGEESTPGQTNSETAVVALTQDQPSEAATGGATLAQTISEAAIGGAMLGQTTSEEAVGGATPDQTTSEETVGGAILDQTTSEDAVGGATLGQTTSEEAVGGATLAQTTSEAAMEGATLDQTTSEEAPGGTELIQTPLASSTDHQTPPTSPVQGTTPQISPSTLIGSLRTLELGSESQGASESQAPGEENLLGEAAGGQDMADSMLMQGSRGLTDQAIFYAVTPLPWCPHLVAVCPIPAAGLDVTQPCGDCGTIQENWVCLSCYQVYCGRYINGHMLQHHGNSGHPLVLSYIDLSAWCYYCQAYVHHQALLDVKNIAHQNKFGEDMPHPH

CAL-27 [4] = test: cells; conditions: Homo sapiens, CAL-27, 72 h
Description: Cytotoxicity against human CAL-27 cells assessed as reduction in cell viability incubated for 72 hrs by MTT assay

[5] = molecular target: T2, Protein deacetylase HDAC6 (Homo sapiens) (UniProt Q9UBN7); test: as §1, with “cells at > 10 uM” for “cells”, “analysis relative to control” for “analysis”; conditions: time 150.0 min
T2 sequence (whole entry): T1 sequence (Q9UBN7 whole entry)

cells [6] = conditions: Homo sapiens, A2780cisR
Description: Inhibition of class I/6 HDAC (unknown origin) in cisplatin resistant human A2780 cisR cells using Boc-Lys(epsilon-Ac)-AMC as substrate preincubated with compound for 18 hrs followed by substrate addition and measured after 3 hrs by NOVOstar microplate reader analysis

cells [7] = conditions: Homo sapiens, Cal27CisR, 72 h
Description: Cytotoxicity against cisplatin resistant human Cal27CisR cells assessed as reduction in cell viability incubated for 72 hrs by MTT assay

cells [8] = conditions: Homo sapiens, CAL-27
Description: Inhibition of class I/6 HDAC (unknown origin) in human CAL-27 cells using Boc-Lys(epsilon-Ac)-AMC as substrate preincubated with compound for 18 hrs followed by substrate addition and measured after 3 hrs by NOVOstar microplate reader analysis

A2780cisR [9] = test: cells; conditions: Homo sapiens, 72 h
[10] = molecular target: Histone deacetylase 3/Nuclear receptor corepressor 2 (HDAC3/NCoR2) (Homo sapiens, UniProt O15379); assay type: cell-based, Sf9
Chain of Histone deacetylase 3/Nuclear receptor corepressor 2 (HDAC3/NCoR2) (O15379 whole entry): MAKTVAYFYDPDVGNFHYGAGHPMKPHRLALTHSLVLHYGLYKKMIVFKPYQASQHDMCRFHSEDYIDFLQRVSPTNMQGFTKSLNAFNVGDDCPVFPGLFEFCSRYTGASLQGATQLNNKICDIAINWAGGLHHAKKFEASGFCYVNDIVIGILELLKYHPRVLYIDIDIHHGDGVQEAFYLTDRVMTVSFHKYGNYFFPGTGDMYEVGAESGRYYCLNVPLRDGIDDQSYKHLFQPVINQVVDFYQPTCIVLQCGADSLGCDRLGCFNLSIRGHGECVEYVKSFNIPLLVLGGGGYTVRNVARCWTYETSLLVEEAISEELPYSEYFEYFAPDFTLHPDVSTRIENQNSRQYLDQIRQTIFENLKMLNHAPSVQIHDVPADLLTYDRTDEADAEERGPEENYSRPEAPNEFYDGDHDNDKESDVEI
Chain of Histone deacetylase 3/Nuclear receptor corepressor 2 (HDAC3/NCoR2) (Q9Y618 whole entry, further chain): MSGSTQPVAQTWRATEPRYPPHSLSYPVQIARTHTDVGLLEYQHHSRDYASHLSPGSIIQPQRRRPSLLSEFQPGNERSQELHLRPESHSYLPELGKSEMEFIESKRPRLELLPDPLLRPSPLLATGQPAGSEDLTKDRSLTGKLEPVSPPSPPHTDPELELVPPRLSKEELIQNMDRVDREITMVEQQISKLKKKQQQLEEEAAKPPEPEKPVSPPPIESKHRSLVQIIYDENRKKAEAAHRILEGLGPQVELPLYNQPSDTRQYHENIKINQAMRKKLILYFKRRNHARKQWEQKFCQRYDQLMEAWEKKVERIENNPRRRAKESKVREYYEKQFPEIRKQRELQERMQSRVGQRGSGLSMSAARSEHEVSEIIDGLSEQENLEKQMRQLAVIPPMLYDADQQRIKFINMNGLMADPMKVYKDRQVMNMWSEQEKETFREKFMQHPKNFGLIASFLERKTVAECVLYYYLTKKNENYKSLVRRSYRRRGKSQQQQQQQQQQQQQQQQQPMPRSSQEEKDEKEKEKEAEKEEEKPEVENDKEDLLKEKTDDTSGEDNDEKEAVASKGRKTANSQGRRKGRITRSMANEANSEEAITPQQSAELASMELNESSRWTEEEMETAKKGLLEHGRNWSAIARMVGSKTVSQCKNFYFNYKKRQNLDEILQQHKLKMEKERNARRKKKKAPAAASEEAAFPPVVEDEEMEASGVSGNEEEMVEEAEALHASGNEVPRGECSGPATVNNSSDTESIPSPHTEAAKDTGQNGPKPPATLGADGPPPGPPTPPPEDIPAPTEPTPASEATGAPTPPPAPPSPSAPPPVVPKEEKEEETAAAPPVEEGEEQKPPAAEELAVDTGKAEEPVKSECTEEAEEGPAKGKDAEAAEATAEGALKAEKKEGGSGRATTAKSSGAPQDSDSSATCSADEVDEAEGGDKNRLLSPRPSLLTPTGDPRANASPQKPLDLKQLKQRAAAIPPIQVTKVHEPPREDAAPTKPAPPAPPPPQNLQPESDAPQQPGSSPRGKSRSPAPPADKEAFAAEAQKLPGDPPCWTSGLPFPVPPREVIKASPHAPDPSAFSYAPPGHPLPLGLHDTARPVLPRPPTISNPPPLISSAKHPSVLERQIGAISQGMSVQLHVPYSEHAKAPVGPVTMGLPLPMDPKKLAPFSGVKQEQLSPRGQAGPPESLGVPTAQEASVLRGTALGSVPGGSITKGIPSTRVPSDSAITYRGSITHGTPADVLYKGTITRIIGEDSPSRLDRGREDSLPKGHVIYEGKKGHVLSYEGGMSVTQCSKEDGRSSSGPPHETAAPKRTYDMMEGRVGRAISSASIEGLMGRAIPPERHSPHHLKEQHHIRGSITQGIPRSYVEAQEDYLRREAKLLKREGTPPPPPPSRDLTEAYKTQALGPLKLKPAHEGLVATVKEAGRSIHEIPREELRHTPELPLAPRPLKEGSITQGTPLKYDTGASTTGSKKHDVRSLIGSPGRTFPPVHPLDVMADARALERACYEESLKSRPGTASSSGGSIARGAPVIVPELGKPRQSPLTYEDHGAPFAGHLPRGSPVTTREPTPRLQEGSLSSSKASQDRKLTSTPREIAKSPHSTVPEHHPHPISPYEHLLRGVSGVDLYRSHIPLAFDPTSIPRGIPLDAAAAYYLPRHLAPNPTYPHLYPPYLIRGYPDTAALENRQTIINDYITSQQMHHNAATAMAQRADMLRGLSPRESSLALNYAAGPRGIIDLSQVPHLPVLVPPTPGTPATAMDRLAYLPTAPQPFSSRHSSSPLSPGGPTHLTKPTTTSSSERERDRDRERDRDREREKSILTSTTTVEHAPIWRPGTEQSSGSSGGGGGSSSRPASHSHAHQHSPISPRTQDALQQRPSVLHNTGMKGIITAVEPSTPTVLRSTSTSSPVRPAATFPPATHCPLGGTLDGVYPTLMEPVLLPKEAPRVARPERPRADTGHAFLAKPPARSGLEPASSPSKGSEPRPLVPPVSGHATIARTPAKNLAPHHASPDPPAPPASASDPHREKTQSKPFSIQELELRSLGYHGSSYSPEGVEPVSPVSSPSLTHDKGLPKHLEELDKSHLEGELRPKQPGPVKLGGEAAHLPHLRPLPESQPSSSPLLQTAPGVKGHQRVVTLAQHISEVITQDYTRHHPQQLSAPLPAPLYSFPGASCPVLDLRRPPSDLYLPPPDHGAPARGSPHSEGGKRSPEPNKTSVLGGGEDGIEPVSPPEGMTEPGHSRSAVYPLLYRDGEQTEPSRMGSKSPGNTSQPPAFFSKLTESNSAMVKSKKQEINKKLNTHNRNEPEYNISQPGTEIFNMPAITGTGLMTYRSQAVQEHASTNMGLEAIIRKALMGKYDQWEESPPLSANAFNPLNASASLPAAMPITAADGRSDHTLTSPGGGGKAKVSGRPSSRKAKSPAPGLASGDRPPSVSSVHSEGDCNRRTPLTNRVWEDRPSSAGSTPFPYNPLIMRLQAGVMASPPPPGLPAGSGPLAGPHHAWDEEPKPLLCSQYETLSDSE

Histone deacetylase 4 = Histone deacetylase 4 (Homo sapiens, UniProt P56524); test: Inhibition of recombinant HDAC4 (unknown origin) using Bos-Lys(TFA)-AMC as substrate preincubated with compound for 5 mins and measured after 90 mins by NOVOstar microplate reader analysis
Chain of Histone deacetylase 4 (P56524 whole entry): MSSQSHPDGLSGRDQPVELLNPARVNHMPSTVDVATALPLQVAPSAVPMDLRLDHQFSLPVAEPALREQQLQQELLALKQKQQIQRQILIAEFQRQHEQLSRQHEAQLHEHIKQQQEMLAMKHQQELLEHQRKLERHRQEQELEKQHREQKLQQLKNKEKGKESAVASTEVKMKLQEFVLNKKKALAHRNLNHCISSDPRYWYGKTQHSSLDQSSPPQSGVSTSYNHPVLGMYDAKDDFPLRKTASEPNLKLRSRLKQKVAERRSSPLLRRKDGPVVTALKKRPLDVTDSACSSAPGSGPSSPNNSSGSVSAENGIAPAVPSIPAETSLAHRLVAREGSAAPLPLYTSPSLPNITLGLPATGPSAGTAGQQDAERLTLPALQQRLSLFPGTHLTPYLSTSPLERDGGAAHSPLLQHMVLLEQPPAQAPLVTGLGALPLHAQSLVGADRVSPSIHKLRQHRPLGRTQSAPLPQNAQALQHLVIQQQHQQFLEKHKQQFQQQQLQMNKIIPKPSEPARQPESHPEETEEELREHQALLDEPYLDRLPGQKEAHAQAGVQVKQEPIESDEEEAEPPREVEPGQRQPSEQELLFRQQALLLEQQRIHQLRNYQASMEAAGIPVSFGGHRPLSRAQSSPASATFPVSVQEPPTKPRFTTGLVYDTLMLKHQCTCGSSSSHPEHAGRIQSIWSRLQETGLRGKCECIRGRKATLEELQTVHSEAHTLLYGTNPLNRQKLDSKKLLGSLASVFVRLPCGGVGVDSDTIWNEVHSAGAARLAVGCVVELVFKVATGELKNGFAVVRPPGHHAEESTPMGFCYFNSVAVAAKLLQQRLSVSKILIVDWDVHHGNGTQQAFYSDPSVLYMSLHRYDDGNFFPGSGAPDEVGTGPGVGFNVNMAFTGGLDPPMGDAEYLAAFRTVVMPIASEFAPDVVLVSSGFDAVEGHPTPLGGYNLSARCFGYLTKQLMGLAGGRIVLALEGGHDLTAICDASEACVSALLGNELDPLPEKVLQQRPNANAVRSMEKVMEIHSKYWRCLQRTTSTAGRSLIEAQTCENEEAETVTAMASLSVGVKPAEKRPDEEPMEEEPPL

cells [11] = conditions: Homo sapiens, A2780
Description: Inhibition of class I/6 HDAC (unknown origin) in human A2780 cells using Boc-Lys(epsilon-Ac)-AMC as substrate preincubated with compound for 18 hrs followed by substrate addition and measured after 3 hrs by NOVOstar microplate reader analysis

cells [12] = conditions: Homo sapiens, CAL-27; remark: listed apart in the source
Description: Inhibition of class IIa/8 HDAC (unknown origin) in human CAL-27 cells using Boc-Lys(TFA)-AMC as substrate preincubated with compound for 18 hrs followed by substrate addition and measured after 3 hrs by NOVOstar microplate reader analysis

cells [13] = conditions: Homo sapiens, A2780cisR; remark: listed apart in the source
Description: Inhibition of class IIa/8 HDAC (unknown origin) in cisplatin resistant human A2780 cisR cells using Boc-Lys(TFA)-AMC as substrate preincubated with compound for 18 hrs followed by substrate addition and measured after 3 hrs by NOVOstar microplate reader analysis

cells [14] = conditions: Homo sapiens, Cal27CisR; remark: listed apart in the source
Description: Inhibition of class IIa/8 HDAC (unknown origin) in cisplatin resistant human Cal27CisR cells using Boc-Lys(TFA)-AMC as substrate preincubated with compound for 18 hrs followed by substrate addition and measured after 3 hrs by NOVOstar microplate reader analysis

cells [15] = conditions: Homo sapiens, A2780; remark: listed apart in the source
Description: Inhibition of class IIa/8 HDAC (unknown origin) in human A2780 cells using Boc-Lys(TFA)-AMC as substrate preincubated with compound for 18 hrs followed by substrate addition and measured after 3 hrs by NOVOstar microplate reader analysis

Cal27CisR = test: Cytotoxicity against cisplatin resistant human Cal27CisR cells at < 10 uM assessed as reduction in cell viability incubated for 72 hrs by MTT assay; assay type: functional, cell-based
Histone deacetylase 8 = molecular target: T3, Histone deacetylase 8 (Homo sapiens, UniProt Q9BY41); test: Inhibition of recombinant HDAC8 (unknown origin) using Bos-Lys(TFA)-AMC as substrate preincubated with compound for 5 mins and measured after 90 mins by NOVOstar microplate reader analysis
T3 sequence (Q9BY41 whole entry): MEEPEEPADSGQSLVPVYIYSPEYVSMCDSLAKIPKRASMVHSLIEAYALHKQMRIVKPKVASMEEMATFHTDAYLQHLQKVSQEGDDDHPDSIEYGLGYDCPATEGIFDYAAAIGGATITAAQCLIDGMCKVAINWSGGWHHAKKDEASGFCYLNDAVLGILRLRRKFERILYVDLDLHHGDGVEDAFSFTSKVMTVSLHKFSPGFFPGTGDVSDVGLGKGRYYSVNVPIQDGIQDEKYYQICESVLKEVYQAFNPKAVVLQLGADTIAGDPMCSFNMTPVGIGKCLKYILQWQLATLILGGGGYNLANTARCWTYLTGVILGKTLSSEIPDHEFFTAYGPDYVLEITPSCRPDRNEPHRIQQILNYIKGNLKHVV

[16] = molecular target: T4, Histone deacetylase 3/Nuclear receptor corepressor 2 (HDAC3/NCoR2) (Homo sapiens) (UniProt O15379+Q9Y618); test: (§2) Inhibition of C-terminal His tagged human recombinant HDAC3 (1 to 428 end residues)/N-terminal GST-tagged human NcoR2 expressed in sf9 cells at 10 uM using ZMAL (Z-Lys(Ac)-AMC as fluorogenic substrate preincubated with compound for 60 mins followed by substrate addition and measured after 90 mins by fluorescence based microplate reader analysis relative to control; conditions: time 150.0 min
A2780 [17] = test: Cytotoxicity against human A2780 cells at < 100 uM assessed as reduction in cell viability incubated for 72 hrs by MTT assay; assay type: functional, cell-based
[18] = molecular target: Histone deacetylase 2 (Homo sapiens) (UniProt Q92769); test: as §2, with “FLAG” for “His”, “tagged full length” for “tagged”, “HDAC2” for “HDAC3”, “488” for “428”, “residues)” for “residues)/N-terminal GST-tagged human NcoR2”; conditions: time 150.0 min
Chain of Histone deacetylase 2 (Homo sapiens) (Q92769 whole entry): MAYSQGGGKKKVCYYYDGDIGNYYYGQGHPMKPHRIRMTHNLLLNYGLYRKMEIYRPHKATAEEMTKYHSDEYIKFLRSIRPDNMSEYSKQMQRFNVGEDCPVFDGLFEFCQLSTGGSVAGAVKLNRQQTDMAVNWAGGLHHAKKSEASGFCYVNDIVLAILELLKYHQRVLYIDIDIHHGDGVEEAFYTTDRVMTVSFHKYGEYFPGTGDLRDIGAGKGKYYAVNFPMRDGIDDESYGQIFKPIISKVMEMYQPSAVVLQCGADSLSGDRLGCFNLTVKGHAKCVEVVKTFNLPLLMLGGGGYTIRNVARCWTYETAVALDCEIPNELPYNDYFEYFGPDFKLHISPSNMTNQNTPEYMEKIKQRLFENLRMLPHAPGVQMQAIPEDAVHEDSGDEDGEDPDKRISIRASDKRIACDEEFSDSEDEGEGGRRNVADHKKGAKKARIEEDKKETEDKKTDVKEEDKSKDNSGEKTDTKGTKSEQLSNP

[19] = molecular target: T5, Histone deacetylase 8 (Homo sapiens) (UniProt Q9BY41); test: Inhibition of recombinant HDAC8 (unknown origin) at > 10 uM using Bos-Lys(TFA)-AMC as substrate preincubated with compound for 5 mins and measured after 90 mins by NOVOstar microplate reader analysis relative to control; conditions: time 95.0 min
T5 sequence (whole entry): T3 sequence (Q9BY41 whole entry)

A2780cisR [20] = test: Cytotoxicity against cisplatin resistant human A2780 cisR cells at < 100 uM assessed as reduction in cell viability incubated for 72 hrs by MTT assay; assay type: functional, cell-based
Histone deacetylase 1 = Histone deacetylase 1 (Homo sapiens, UniProt Q13547); test: as §2, with “6-his/FLAG” for “His”, “tagged full length” for “tagged”, “HDAC1” for “HDAC3”, “482” for “428”, “residues)” for “residues)/N-terminal GST-tagged human NcoR2”; conditions: time 150.0 min
Chain of Histone deacetylase 1 (Q13547 whole entry): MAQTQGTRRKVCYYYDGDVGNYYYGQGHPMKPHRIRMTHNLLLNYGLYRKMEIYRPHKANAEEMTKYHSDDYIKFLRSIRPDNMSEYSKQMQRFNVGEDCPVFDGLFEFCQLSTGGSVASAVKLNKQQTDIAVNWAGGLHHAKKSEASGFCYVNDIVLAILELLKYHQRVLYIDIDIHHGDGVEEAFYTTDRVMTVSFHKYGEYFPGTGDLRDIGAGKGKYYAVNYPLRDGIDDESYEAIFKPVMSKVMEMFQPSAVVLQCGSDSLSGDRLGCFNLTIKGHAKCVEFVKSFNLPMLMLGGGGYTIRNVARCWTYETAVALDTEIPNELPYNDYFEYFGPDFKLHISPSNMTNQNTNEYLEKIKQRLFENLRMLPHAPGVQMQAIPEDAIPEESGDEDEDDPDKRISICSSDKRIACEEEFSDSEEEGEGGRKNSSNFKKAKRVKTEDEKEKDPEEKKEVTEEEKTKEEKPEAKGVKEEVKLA

[21] = molecular target: T2, Protein deacetylase HDAC6 (Homo sapiens); test: as §1, with “cells at 10 uM” for “cells”, “analysis relative to control” for “analysis”; conditions: time 150.0 min
[22] = molecular target: T4, Histone deacetylase 3/Nuclear receptor corepressor 2 (HDAC3/NCoR2) (Homo sapiens); test: as §2, with “cells at > 10 uM” for “cells at 10 uM”; conditions: time 150.0 min
A2780 cisR = test: Inhibition of class I/6 HDAC (unknown origin) in cisplatin resistant human A2780 cisR cells at < 100 uM using Boc-Lys(epsilon-Ac)-AMC as substrate preincubated with compound for 18 hrs followed by substrate addition and measured after 3 hrs by NOVOstar microplate reader analysis; assay type: cell-based
CAL-27 [23] = test: Cytotoxicity against human CAL-27 cells at < 100 uM assessed as reduction in cell viability incubated for 72 hrs by MTT assay; assay type: functional, cell-based
A2780 [24] = test: Inhibition of class I/6 HDAC (unknown origin) in human A2780 cells at < 100 uM using Boc-Lys(epsilon-Ac)-AMC as substrate preincubated with compound for 18 hrs followed by substrate addition and measured after 3 hrs by NOVOstar microplate reader analysis; assay type: cell-based
[25] = molecular target: T2, Protein deacetylase HDAC6 (Homo sapiens); test: as §1, with “cells at > 3.33 uM” for “cells”, “analysis relative to control” for “analysis”

Structure (SMILES)	IC50 (A2780 [1])	IC50 (cells [2])	IC50 [3]	IC50 (CAL-27 [4])	inhibition [5]	IC50 (cells [6])	IC50 (cells [7])	IC50 (cells [8])	IC50 (A2780cisR [9])	IC50 [10]	IC50 (Histone deacetylase 4)	IC50 (cells [11])	Activity (Cal27CisR)	IC50 (Histone deacetylase 8)	inhibition [19]	Activity (A2780cisR [20])	other results
CC(C)CCNNC(=O)c1ccc(CN(CC(=O)NCc2ccccc2)C(=O)c2ccc(N(C)C)cc2)cc1	4.94 µM	0.931 µM	> 10 µM	3.41 µM	< 25%	2.08 µM	8.5 µM	0.83 µM	15.8 µM	0.199 µM	> 10 µM	2.91 µM					
CN(C)c1ccc(C(=O)N(CC(=O)NCc2ccccc2)Cc2ccc(C(=O)NNCC3CC3)cc2)cc1	2.61 µM	0.392 µM	> 10 µM	1.99 µM	< 25%	0.974 µM	2.67 µM	0.388 µM	9.08 µM		> 10 µM	0.722 µM					IC50 (cells [12]): 2.97 µM; IC50 (cells [13]): 11.9 µM; IC50 (cells [14]): 1.28 µM; IC50 (cells [15]): 8.56 µM
CN(C)c1ccc(C(=O)N(CC(=O)NCc2ccccc2)Cc2ccc(C(=O)NN)cc2)cc1		35.9 µM		63.5 µM		37.7 µM		30.9 µM			> 10 µM	33.1 µM	inactive	> 10 µM	< 25%	inactive	inhibition [16]: 57%; Activity (A2780 [17]): inactive; inhibition [18]: 53%; inhibition (Histone deacetylase 1): 62%; inhibition [21]: 55%
CN(C)c1ccc(C(=O)N(CC(=O)NCc2ccccc2)Cc2ccc(C(=O)NNc3ccccc3)cc2)cc1		24.3 µM	> 10 µM	60.8 µM	< 25%	36 µM		21.5 µM		3.82 µM	> 10 µM	27.7 µM	inactive	> 10 µM	< 25%	inactive	Activity (A2780 [17]): inactive
CN(C)c1ccc(C(=O)N(CC(=O)NCc2ccccc2)Cc2ccc(C(=O)NNCCC(F)(F)F)cc2)cc1	2.25 µM	0.385 µM	> 10 µM	2.2 µM	< 25%	0.91 µM	3.14 µM	0.379 µM	8.05 µM	0.037 µM	> 10 µM	0.691 µM		> 10 µM	< 25%		
CN(C)c1ccc(C(=O)N(CC(=O)NCc2ccccc2)Cc2ccc(C(=O)NNCCC(C)(C)C)cc2)cc1	70.2 µM	43.6 µM	> 10 µM		< 25%			83.4 µM		> 10 µM	> 10 µM		inactive	> 10 µM	< 25%	inactive	inhibition [22]: < 25%; inhibition [18]: 46%; inhibition (A2780 cisR): inactive; Activity (CAL-27 [23]): inactive; inhibition (Histone deacetylase 1): 63%; inhibition (A2780 [24]): inactive
CN(C)c1ccc(C(=O)N(CC(=O)NCc2ccccc2)Cc2ccc(C(=O)NNCCCc3ccccc3)cc2)cc1	5.9 µM	1.96 µM	> 10 µM	10.3 µM		2.97 µM	21.6 µM	2.46 µM	35.5 µM	1.2 µM	> 10 µM	2.21 µM					inhibition [25]: < 25%
CN(C)c1ccc(C(=O)N(CC(=O)NCc2ccccc2)Cc2ccc(C(=O)Nc3ccccc3N)cc2)cc1	4.33 µM	0.491 µM	> 10 µM	2 µM		1.63 µM	2.63 µM	0.327 µM	8.28 µM		> 10 µM	1.22 µM		> 10 µM			IC50 (cells [12]): 9.34 µM; IC50 (cells [13]): 47.6 µM; IC50 (cells [14]): 6.47 µM; IC50 (cells [15]): 49.8 µM
CCCCCNNC(=O)c1ccc(CN(CC(=O)NCc2ccccc2)C(=O)c2ccc(N(C)C)cc2)cc1	0.675 µM	0.218 µM	> 3.33 µM	0.843 µM		0.334 µM	1.5 µM	0.264 µM	3.38 µM	0.072 µM	> 10 µM	0.273 µM					inhibition [25]: < 25%
